How the values were obtained:
[1] = TMB colorimetric assay for peroxidase-like (catalytic) activity / ROS; details: for effect of the salt on the catalytic activity of Fer: salt 20 (or 30) μg/ml, Fer 20 μg of Fe/ml, pH 4.5, FIGS. 4A-4C
Excerpt: To explore whether SnF2 could produce ROS, the 3,3′,5,5′-tetramethylbenzidine (TMB) colorimetric assay was used for peroxidase-like activity following a previously published protocol, with some modifications. TMB is a chromogenic compound that yields a blue color upon oxidation with an absorption peak at 652 nm in the presence of H2O2.
ROS measurement using 3,3′,5,5′-tetramethylbenzidine (TMB) assay: The catalytic activity of Fer+SnF2 was investigated by a colorimetric assay using TMB (Sigma-Aldrich) as a probe, which generates a blue color in the presence of H2O2 after reacting with ROS. Briefly, the stock solution of TMB was made in DMF (25 mg/ml). Fer (0.5 mg of Fe/ml) and SnF2 (0.5 mg/ml, Sigma-Aldrich) were incubated (separately or combined) at room temperature in 0.1 M of sodium acetate buffer (pH 4.5) for 1 h. Afterward, 40 μl of the testing sample (Fer, SnF2, or Fer+SnF2) and 4 μl of TMB (100 μg) were added into 922 μl of 0.1 M sodium acetate buffer (pH 4.5), and absorbance was recorded at 652 nm. Then, 34 μl of H2O2 (1%, v/v) was added. After 10 min additional incubation in the dark, catalytic activities was monitored at 652 nm. For the control, 40 μl of the buffer solution was taken instead of the testing sample. To examine the effect of DMSO, a quencher of hydroxyl radical (·OH), various amounts of DMSO (0-10%) were used. The effect of pH on the catalytic activity of the combined treatment of Fer+SnF2 was determined at three different pH values (4.5, 5.5, and 6.5), as described above. The comparison of the catalytic activity of Fer+NaF and Fer+SnF2 was also conducted using the same protocol as described above, except after adding H2O2, the reaction mixture was incubated only for 5 min.
Subsequently, 40 μl of the combined mixture of Fer (20 μg of Fe) and BaF2 (20 or 30 μg) and 4 μl of TMB (100 μg) were mixed into 922 μl of 0.1 M sodium acetate buffer (pH 4.5). Afterward, H2O2 (1%) was added. Finally, the absorbance of TMB was monitored at 652 nm after 5 min of incubation. In a similar way, the catalytic activity of SnCl2 (final concentration 20 μg/ml, Sigma-Aldrich) was also investigated. The effect of incubation time on the catalytic activity was investigated after incubating Fer and SnF2 for a predetermined time.
Additionally, the catalytic activity of the released iron and nanoparticle pellet was investigated at pH 4.5 via TMB assay.

[2] = Stability of SnF2 in aqueous solution / sodium acetate buffer (photographs, UV-vis); details: SnF2 alone, 0.1 M sodium acetate buffer pH 5.5; FIG. 2B
Excerpt: It is noteworthy that SnF2 has limited stability in aqueous solutions owing to its high susceptibility to hydrolysis and oxidation, requiring chemical additives (e.g., chelating agents) or water removal, which can reduce fluoride bioavailability. […] To further investigate the stability of SnF2 in the presence of Fer, SnF2 (250 ppm of F) was mixed with increasing amounts of Fer in 0.1 M sodium acetate buffer at different pH values.
The peak at 4.0-4.2 ppm (denoted as “a”) is attributed to the protons of the carboxymethyl moieties, as determined previously. […] Note that similar ^1H NMR studies of SnF2 and Fer are not possible due to the superparamagnetic nature of Fer interfering with ^1H NMR measurements.
The Fer formulation also contains mannitol, which is an antioxidant. Since antioxidants can prevent the oxidation of SnF2, SnF2 was added to various amounts of mannitol (1-10 mg/ml).

S. mutans biofilm = assay: In vitro biofilm model on saliva-coated hydroxyapatite disc: viable cells (CFU) and biomass (dry weight); type: cell-based, Streptococcus mutans UA159
Method: Antibiofilm activity was evaluated using different concentrations of Fer and SnF2 in the presence of H2O2 using the saliva-coated hydroxyapatite disc (tooth enamel mimic) model in the presence of sucrose. Initially, Fer (1 mg of Fe/ml) was mixed with various concentrations of SnF2 (0-250 ppm of F), and the number of viable cells and biomass were determined.
Biofilms were formed using the saliva-coated hydroxyapatite disc (sHA) model as described elsewhere. Streptococcus mutans UA159, a proven virulent and well-characterized cariogenic pathogen, were grown in ultra-filtered (10 kDa, cutoff; Millipore, Billerica, MA) tryptone-yeast extract (UFTYE) broth at 37° C. and 5% CO2 to mid-exponential phase. Briefly, HA discs (surface area of 2.7±0.2 cm^2; Clarkson Chromatography Inc., South Williamsport, PA) were vertically suspended in 24-well plates using a custom-made wire disc holder and coated with filter-sterilized human saliva for 1 h at 37° C. Each sHA disc was inoculated with ˜2×10^5 CFU of S. mutans per ml in UFTYE containing 1% sucrose at 37° C. and 5% CO2. Topical treatment of Fer and SnF2 or vehicle control was performed twice daily for 10 min at 0, 6, 19, and 29 h. The culture medium was changed twice daily (at 19 h and 29 h). At the end of the experimental period (43 h), the biofilms were placed in 2.8 ml of H2O2 (1%, v/v) for 5 min. After H2O2 exposure, the biofilms were removed and homogenized via bath sonication followed by probe sonication (at an output of 7 W for 30 s). The homogenized suspension was serially diluted and plated onto blood agar plates using an automated EddyJet Spiral Plater (IUL, SA, Barcelona, Spain). The numbers of viable cells in each biofilm were calculated by counting CFU. The remaining suspension was centrifuged at 5500 g for 10 min, the resulting cell pellets were then washed, oven-dried, and weighed. SnF2 and NaF treatment groups were performed according to the same procedure.

[3] = Hydroxyl radical production by PL using coumarin; details: pH 4.5, H2O2; FIGS. 3F, 15
Method: Comparison of hydroxyl radical (·OH) production: ·OH generated by Fer and Fer+SnF2 in 0.1 M sodium acetate buffer (pH 4.5) was compared by PL technique using coumarin (Sigma-Aldrich) as a ·OH trapping molecule. First, stock solution of Fer (0.5 mg of Fe/ml) with or without SnF2 (0.5 mg/ml) was incubated in 0.1 M sodium acetate buffer (pH 4.5) for 1 h. Afterward, Fer (20 μg of Fe/ml) with or without SnF2 (20 μg/ml) was mixed with coumarin (0.1 mM) in a 10 mm path length cuvette, and then H2O2 (1%, v/v) was added to the reaction mixture to initiate the reaction. The PL intensity was recorded at 452 nm at different incubation times with an excitation wavelength of 332 nm. For the control, all the experimental conditions were the same, except that the testing samples were not used.

[4] = Stability of Fer/SnF2 with citric acid after 1 month at room temperature (photographs, hydrodynamic diameter); type: physicochemical
Method: FIG. 21 provides photographs of Fer+SnF2 when mixed with various amounts of citric acid after 1 month incubation at room temperature.

SMILES: [Ba+2].[F-].[F-] [BaF2, barium fluoride]
- effect of the salt on the catalytic activity of Fer [1]: Neither NaF nor BaF2 increased the catalytic activity of Fer

SMILES: [F-].[Na+] [NaF, sodium fluoride]
- effect of the salt on the catalytic activity of Fer [1]: Neither NaF nor BaF2 increased the catalytic activity of Fer

SMILES: [Cl][Sn][Cl] [SnCl2]
- effect of the salt on the catalytic activity of Fer [1]: enhanced the catalytic activity of Fer

SMILES: [F][Sn][F] [SnF2, stannous fluoride]
- appearance of SnF2 solution [2]: Immediate aggregation
- growth of S. mutans (bacterial viability) (S. mutans biofilm; 1000 ppm of F, compared with NaF, FIG. 9A): significantly inhibit the growth of S. mutans
- biomass (S. mutans biofilm; 1000 ppm of F, compared with NaF, FIG. 9B): reduce biomass
- biomass (S. mutans biofilm; SnF2 250 ppm of F alone, FIG. 1D): substantially reduce biomass
- ·OH production (PL intensity of 7-hydroxycoumarin at 452 nm) [3]: did not produce a noticeable amount of ·OH
- ROS production / catalytic activity (TMB absorption at 652 nm) ([1]; pH 4.5, H2O2, FIGS. 3A, 3B): did not produce a noticeable amount of ROS
- effect of post-mixed SnF2 on the catalytic activity of Fer ([1]; post-mixed, not pre-mixed and incubated, FIG. 20): reduced the catalytic activity of Fer

SMILES: O=C(O)CC(O)(CC(=O)O)C(=O)O [citric acid]
- amount of citric acid that improves the stability of the Fer/SnF2 formulation [4]: ≥ 125 µg/mL

Reference: US20250318997A1, “COMPOSITIONS AND METHODS FOR PREVENTING DENTAL CARIES” (THE TRUSTEES OF THE UNIVERSITY OF PENNSYLVANIA, priority 2022, published 2025)
